In patent US20230075856A1, “CYCLIC SULFAMIDE COMPOUNDS FOR TREATMENT OF HBV” (Assembly Biosciences, Inc., priority 2018, published 2023):

The compounds below were run on HBV viral load production from HepAD38 cells (assay: Viral production from HepAD38 cells: viral load in supernatant by qPCR of the HBV core sequence). Conditions: 5 days incubation, qPCR of supernatant HBV DNA vs DMSO control, read-out: viral load lowering EC50 (Activity).
Assay type: cell-based
How it was run: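 Viral load was measured by qPCR of the HBV core region in supernatant, quantified against DNA standards and compared with DMSO wells. Cells (50,000/well, tetracycline withdrawn, 2% FBS) received compound from 10 μM final for 5 days; EC50 from four-parameter nonlinear regression.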

Row | Compound | EC50
1 | CN1C(C(=O)Nc2ccc(F)c(Cl)c2)CC(C(=O)NCc2ccc(Cl)cc2)NS1(=O)=O (single isomer, unassigned) [Compound 729-ISOMER-B, N3-(3-chloro-4-fluoro-phenyl)-N5-[(4-chlorophenyl)methyl]-2-methyl-1,1-dioxo-1,2,6-thiadiazinane-3,5-dicarboxamide] | 100 to 10000 nM
2 | CN1C(C(=O)Nc2ccc(F)c(Cl)c2)CC(C(=O)NC2CCN(c3ncccn3)CC2)NS1(=O)=O (single isomer, unassigned) [Compound 855-ISOMER-B, N3-(3-chloro-4-fluoro-phenyl)-2-methyl-1,1-dioxo-N5-(1-pyrimidin-2-yl-4-piperidyl)-1,2,6-thiadiazinane-3,5-dicarboxamide] | 100 to 10000 nM
3 | CN1C(C(=O)Nc2ccc(F)c(Cl)c2)CC(C(=O)NCc2cnc(-c3ccc(C#N)cc3F)s2)NS1(=O)=O (single isomer, unassigned) [Compound 920-ISOMER-B, N3-(3-chloro-4-fluoro-phenyl)-N5-[[2-(4-cyano-2-fluoro-phenyl)thiazol-5-yl]methyl]-2-methyl-1,1-dioxo-1,2,6-thiadiazinane-3,5-dicarboxamide] | < 50 nM
4 | Cc1cc(CNC(=O)C2CC(C(=O)Nc3ccc(F)c(Cl)c3)N(C)S(=O)(=O)N2)n(C)n1 (single isomer, unassigned) [Compound 482-ISOMER-B, N3-(3-chloro-4-fluoro-phenyl)-N5-[(2,5-dimethylpyrazol-3-yl)methyl]-2-methyl-1,1-dioxo-1,2,6-thiadiazinane-3,5-dicarboxamide] | 100 to 10000 nM
5 | Cc1cn(-c2ccc(F)cc2F)nc1CNC(=O)C1CC(C(=O)Nc2ccc(F)c(Cl)c2)N(C)S(=O)(=O)N1 (single isomer, unassigned) [1144-ISOMER-B, N3-(3-chloro-4-fluoro-phenyl)-N5-[[1-(2,4-difluorophenyl)-4-methyl-pyrazol-3-yl]methyl]-2-methyl-1,1-dioxo-1,2,6-thiadiazinane-3,5-dicarboxamide] | 100 to 10000 nM
6 | C[C@@H](NC(=O)C1CC(C(=O)Nc2ccc(F)c(Cl)c2)N(C)S(=O)(=O)N1)c1ccccc1 (single isomer, unassigned) [Compound 719-ISOMER-B] | 100 to 10000 nM
7 | CN1C(C(=O)Nc2ccc(F)c(Cl)c2)CC(C(=O)NCc2cnc(-c3cccnc3)s2)NS1(=O)=O (single isomer, unassigned; isomer-b) [Compound 911-ISOMER-B, N3-(3-chloro-4-fluoro-phenyl)-2-methyl-1,1-dioxo-N5-[[2-(3-pyridyl)thiazol-5-yl]methyl]-1,2,6-thiadiazinane-3,5-dicarboxmaide] | < 50 nM
8 | CN1C(C(=O)Nc2ccc(F)c(Cl)c2)CC(C(=O)NCc2cnc(-c3ccccc3)s2)NS1(=O)=O (single isomer, unassigned) [Compound 691-ISOMER-B, N3-(3-chloro-4-fluoro-phenyl)-2-methyl-1,1-dioxo-N5-[(2-phenylthiazol-5-yl)methyl]-1,2,6-thiadiazinane-3,5-dicarboxamide] | < 50 nM
9 | Cc1nc(-c2ccccc2F)sc1[C@@H](NC(=O)C1CC(C(=O)Nc2ccc(F)c(Cl)c2)N(C)S(=O)(=O)N1)c1ccccc1 (single isomer, unassigned; isomer-d) [1101-ISOMER-D] | 100 to 10000 nM

Same assay, conditions: Hepatitis B virus, HePAD38, 120 h, 5 days incubation, qPCR of supernatant HBV DNA vs DMSO control, read-out: viral load lowering EC50 (Activity)

Row | Compound | EC50
10 | CN1C(C(=O)Nc2ccc(F)c(Cl)c2)CC(C(=O)NC2CC3CCC2C3)NS1(=O)=O (stereo not drawn) [Compound 858] | 100 to 10000 nM
11 | CCN1CCC(Oc2ccc(-c3ncc(CNC(=O)C4CC(C(=O)Nc5ccc(F)c(Cl)c5)N(C)S(=O)(=O)N4)s3)cc2)CC1 (stereo not drawn) [Compound 921] | 50 to 100 nM
12 | Cc1nc(-c2ccccc2)sc1CNC(=O)C1CC(C(=O)Nc2ccc(F)c(C#N)c2)N(C)S(=O)(=O)N1 (single isomer, unassigned) [1136-ISOMER-A, N3-(3-cyano-4-fluoro-phenyl)-2-methyl-N5-[(4-methyl-2-phenyl-thiazol-5-yl)methyl]-1,1-dioxo-1,2,6-thiadiazinane-3,5-dicarboxamide] | < 50 nM
13 | COc1ccc(CNC(=O)C2CC(C(=O)Nc3ccc(F)c(Cl)c3)N(C)S(=O)(=O)N2)cc1 (single isomer, unassigned) [Compound 717-ISOMER-A, N3-(3-chloro-4-fluoro-phenyl)-N5-[(4-methoxyphenyl)methyl]-2-methyl-1,1-dioxo-1,2,6-thiadiazinane-3,5-dicarboxamide] | < 50 nM
14 | COc1ccccc1CNC(=O)C1CC(C(=O)Nc2ccc(F)c(Cl)c2)N(C)S(=O)(=O)N1 (stereo not drawn) [Compound 822] | < 50 nM
15 | Cc1nc(-c2ccccc2F)sc1CNC(=O)C1CC(C(=O)Nc2ccc(F)c(Cl)c2)N(C)S(=O)(=O)N1 (stereo not drawn) [Compound 1016] | < 50 nM
16 | Cc1nc(-c2ccccc2)sc1CNC(=O)C1CC(C(=O)Nc2ccc(F)c(Cl)c2)N(C)S(=O)(=O)N1 (stereo not drawn) [Compound 914] | < 50 nM
17 | Cc1ccccc1-c1nc(C)c(CNC(=O)C2CC(C(=O)Nc3ccc(F)c(Cl)c3)N(C)S(=O)(=O)N2)s1 (stereo not drawn) [Compound 1017] | < 50 nM
18 | CN1C(C(=O)Nc2ccc(F)c(Cl)c2)CC(C(=O)NC2CCN(c3ccccn3)CC2)NS1(=O)=O (single isomer, unassigned) [Compound 769-ISOMER-A, N3-(3-chloro-4-fluoro-phenyl)-2-methyl-1,1-dioxo-N5-[1-(2-pyridyl)-4-piperidyl]-1,2,6-thiadiazinane-3,5-dicarboxamide] | < 50 nM
19 | Cc1nc(-c2ccc(F)cc2F)sc1CNC(=O)C1CC(C(=O)Nc2ccc(F)c(Cl)c2)N(C)S(=O)(=O)N1 (single isomer, unassigned) [1083-ISOMER-A, N3-(3-chloro-4-fluoro-phenyl)-N5-[[2-(2,4-difluorophenyl)-4-methyl-thiazol-5-yl]methyl]-2-methyl-1,1-dioxo-1,2,6-thiadiazinane-3,5-dicarboxamide] | < 50 nM
20 | CN(C)CC(C)(C)COc1ccc(-c2ncc(CNC(=O)C3CC(C(=O)Nc4ccc(F)c(Cl)c4)N(C)S(=O)(=O)N3)s2)cc1 (single isomer, unassigned) [Compound 943-ISOMER-A, N3-(3-chloro-4-fluoro-phenyl)-N5-[[2-[4-[3-(dimethylamino)-2,2-dimethyl-propoxy]phenyl]thiazol-5-yl]methyl]-2-methyl-1,1-dioxo-1,2,6-thiadiazinane-3,5-dicarboxamide] | < 50 nM
21 | Cc1nc(-c2ccccn2)sc1CNC(=O)C1CC(C(=O)Nc2ccc(F)c(Cl)c2)N(C)S(=O)(=O)N1 (stereo not drawn) [Compound 1065] | < 50 nM
22 | COc1ccc(-c2ncc(CNC(=O)C3CC(C(=O)Nc4ccc(F)c(Cl)c4)N(C)S(=O)(=O)N3)s2)c(Cl)c1 (stereo not drawn) [Compound 988] | < 50 nM
23 | Cc1cn(-c2ccccc2)nc1CNC(=O)C1CC(C(=O)Nc2ccc(F)c(C#N)c2)N(C)S(=O)(=O)N1 (single isomer, unassigned) [1134-ISOMER-A, N3-(3-cyano-4-fluoro-phenyl)-2-methyl-N5-[(4-methyl-1-phenyl-pyrazol-3-yl)methyl]-1,1-dioxo-1,2,6-thiadiazinane-3,5-dicarboxamide] | 100 to 10000 nM
24 | CC(C)OC1CCC(NC(=O)C2CC(C(=O)Nc3ccc(F)c(Cl)c3)N(C)S(=O)(=O)N2)CC1 (stereo not drawn) [Compound 862] | < 50 nM
25 | CN1C(C(=O)Nc2ccc(F)c(Cl)c2)CC(C(=O)NC2CCN(c3cc(CN4CCCCC4)ccn3)CC2)NS1(=O)=O (stereo not drawn) [Compound 975] | < 50 nM
26 | Cc1cn(-c2ccccc2F)nc1CNC(=O)C1CC(C(=O)Nc2ccc(F)c(Cl)c2)N(C)S(=O)(=O)N1 (single isomer, unassigned) [1142-ISOMER-A, N3-(3-chloro-4-fluoro-phenyl)-N5-[[1-(2-fluorophenyl)-4-methyl-pyrazol-3-yl]methyl]-2-methyl-1,1-dioxo-1,2,6-thiadiazinane-3,5-dicarboxamide] | < 50 nM
27 | CN1C(C(=O)Nc2ccc(F)c(Cl)c2)CC(C(=O)NCc2cnc(-c3ccc(C#N)cc3F)s2)NS1(=O)=O (single isomer, unassigned) [Compound 920-ISOMER-A, N3-(3-chloro-4-fluoro-phenyl)-N5-[[2-(4-cyano-2-fluoro-phenyl)thiazol-5-yl]methyl]-2-methyl-1,1-dioxo-1,2,6-thiadiazinane-3,5-dicarboxamide] | 100 to 10000 nM
28 | CN1C(C(=O)Nc2ccc(F)c(Cl)c2)CC(C(=O)NCCc2ccccc2)NS1(=O)=O (stereo not drawn) [Compound 732] | 100 to 10000 nM
29 | CN1C(C(=O)Nc2ccc(F)c(Cl)c2)CC(C(=O)NCc2ccccc2-n2ccnc2)NS1(=O)=O (stereo not drawn) [Compound 910] | 50 to 100 nM
30 | CN1C(C(=O)Nc2ccc(F)c(Cl)c2)CC(C(=O)NC2CCN(c3cc(Cl)ccn3)CC2)NS1(=O)=O (stereo not drawn) [Compound 974] | < 50 nM
31 | Cc1cn(-c2ccccc2)nc1CNC(=O)C1CC(C(=O)Nc2ccc(F)c(Cl)c2)N(C)S(=O)(=O)N1 (single isomer, unassigned) [1057-ISOMER-A, N3-(3-chloro-4-fluoro-phenyl)-2-methyl-N5-[(4-methyl-1-phenyl-pyrazol-3-yl)methyl]-1,1-dioxo-1,2,6-thiadiazinane-3,5-dicarboxamide] | < 50 nM
32 | C[C@H](NC(=O)C1CC(C(=O)Nc2ccc(F)c(Cl)c2)N(C)S(=O)(=O)N1)c1ccccc1 (stereo partly drawn) [Compound 755] | 100 to 10000 nM
33 | CN1C(C(=O)Nc2ccc(F)c(Cl)c2)CC(C(=O)NCc2cnc(-c3ccc(C#CCN4CCCCC4)cc3)s2)NS1(=O)=O (stereo not drawn) [Compound 946] | 50 to 100 nM
34 | CN1C(C(=O)Nc2ccc(F)c(Cl)c2)CC(C(=O)N[C@@H]2CCN(c3ccnc(Cl)c3)C2)NS1(=O)=O (stereo partly drawn) [Compound 1055-R] | < 50 nM
35 | CN1C(C(=O)Nc2ccc(F)c(Cl)c2)CC(C(=O)NCc2cnc(-c3ccc(O)cc3)s2)NS1(=O)=O (single isomer, unassigned) [Compound 924-ISOMER-B, N3-(3-chloro-4-fluoro-phenyl)-N5-[[2-(4-hydroxyphenyl)thiazol-5-yl]methyl]-2-methyl-1,1-dioxo-1,2,6-thiadiazinane-3,5-dicarboxamide] | < 50 nM
36 | CC(NC(=O)C1CC(C(=O)Nc2ccc(F)c(Cl)c2)N(C)S(=O)(=O)N1)c1csc(-c2ccccc2Cl)n1 (stereo not drawn) [Compound 1029] | 100 to 10000 nM
